Test results: ChEMBL document CHEMBL1201862, “PubChem BioAssay data set” (2004)
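Grown in 96-well plates, cells were treated for 48 hours with each compound at five concentrations. Insufficient inhibition: endpoint recorded as highest concentration tested. GI50 marks 50% less growth.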 The source made the active and inactive calls. Cut-off read from the data, not from the text of the source: active = GI50 up to about 1.1 µM and inactive = higher.

Assays:
Experiment in all cases: DTP human tumour cell line panel, 48 h
[1] = tested on: NCI/ADR-RES
[2] = tested on: SK-OV-3
[3] = tested on: Hs-578T
[4] = tested on: M14
[5] = tested on: COLO 205
[6] = tested on: 786-0
[7] = tested on: BT-549
[8] = tested on: SR
[9] = tested on: OVCAR-8
[10] = tested on: KM12
[11] = tested on: HCT-15
[12] = tested on: SNB-19
[13] = tested on: NCI-H226
[14] = tested on: TK-10
[15] = tested on: DU-145
[16] = tested on: SF-295
[17] = tested on: PC-3
[18] = tested on: SK-MEL-5
[19] = tested on: SK-MEL-2
[20] = tested on: NCI-H460

Compound | GI50 [1] | GI50 [2] | GI50 [3] | GI50 [4] | GI50 [5] | GI50 [6] | GI50 [7] | GI50 [8] | GI50 [9] | GI50 [10] | GI50 [11] [µM] | GI50 [12] | GI50 [13] | GI50 [14] | GI50 [15] | GI50 [16] | GI50 [17] | GI50 [18] | GI50 [19] | GI50 [20]
O=P1(O)c2ccccc2Nc2cc(C(F)(F)F)ccc21 | > 100 µM (inactive) | > 100 µM (inactive) | > 100 µM (inactive) | > 100 µM (inactive) | > 100 µM (inactive) | > 100 µM (inactive) | > 100 µM (inactive) | > 100 µM (inactive) | > 100 µM (inactive) | > 100 µM (inactive) | > 100 | > 100 µM (inactive) | > 100 µM (inactive) | > 100 µM (inactive) | > 100 µM (inactive) | > 100 µM (inactive) | > 100 µM (inactive) | > 100 µM (inactive) | > 100 µM (inactive) | > 100 µM (inactive)
CC(C)(C)NC(=O)[C@H]1CC[C@H]2[C@@H]3CC=C4NC(=O)CC[C@]4(C)[C@H]3CC[C@]12C | 64.9 µM (inactive) | > 100 µM (inactive) | 50.9 µM (inactive) | > 100 µM (inactive) | > 100 µM (inactive) | 90.2 µM (inactive) | > 100 µM (inactive) | > 100 µM (inactive) | 70.3 µM (inactive) | > 100 µM (inactive) | > 100 | > 100 µM (inactive) | > 100 µM (inactive) | 46.8 µM (inactive) | > 100 µM (inactive) | > 100 µM (inactive) | > 100 µM (inactive) | > 100 µM (inactive) | > 100 µM (inactive) | > 100 µM (inactive)
COC(COC(=O)N1CCN(C=O)CC1)C1=C(N2CC2)C(=O)C(C)=C(N2CC2)C1=O (stereo not drawn) | 5.57 µM (inactive) | 0.195 µM (active) | 1.26 µM (inactive) | 0.202 µM (active) | 0.272 µM (active) | 0.0644 µM (active) | 0.455 µM (active) | < 0.01 µM (active) | 0.17 µM (active) | 0.551 µM (active) | 1.73 | 0.437 µM (active) | 0.582 µM (active) | 0.579 µM (active) | 0.0472 µM (active) | 1.22 µM (inactive) | 0.461 µM (active) | 0.172 µM (active) | 0.705 µM (active) | < 0.0278 µM (active)
Cc1ccc(/C=C2\CCC/C(=C\c3ccc(O)c(CN4CCCCC4)c3)C2=O)cc1 | 4.07 µM (inactive) | 13.2 µM (inactive) | 7.78 µM (inactive) | 3.73 µM (inactive) | 5.2 µM (inactive) | 3.72 µM (inactive) | 6.62 µM (inactive) | 3.71 µM (inactive) | 2.97 µM (inactive) | 3.01 µM (inactive) | 3.02 | 16.2 µM (inactive) | 7.55 µM (inactive) | 14.6 µM (inactive) | 4.91 µM (inactive) | 10.7 µM (inactive) | 8.05 µM (inactive) | 6.1 µM (inactive) | 19.9 µM (inactive) | 3.96 µM (inactive)
O=C1CCC2(c3ccc(Cl)cc3)Nc3ccncc3N12 (stereo not drawn) | > 10 µM (inactive) | 5.52 µM (inactive) | > 10 µM (inactive) | > 10 µM (inactive) |  | > 10 µM (inactive) | > 10 µM (inactive) | > 10 µM (inactive) | > 10 µM (inactive) | > 10 µM (inactive) | > 10 | > 10 µM (inactive) | > 10 µM (inactive) | > 10 µM (inactive) | 4.4 µM (inactive) | > 10 µM (inactive) | > 10 µM (inactive) |  | > 10 µM (inactive) | > 10 µM (inactive)
COc1ccc(C2=Nn3c(nc4sc(C)c(C)c4c3=O)SC2)cc1 | > 100 µM (inactive) | > 100 µM (inactive) | > 100 µM (inactive) |  | > 100 µM (inactive) | > 100 µM (inactive) | > 100 µM (inactive) | > 100 µM (inactive) | > 100 µM (inactive) | > 100 µM (inactive) | > 100 |  | > 100 µM (inactive) | > 100 µM (inactive) | > 100 µM (inactive) | > 100 µM (inactive) | > 100 µM (inactive) | > 100 µM (inactive) |  | > 100 µM (inactive)
COc1cc(S(=O)(=O)Nc2ccc(-c3csc(/N=C\c4ccccc4)n3)cc2)ccc1Cl | > 100 µM (inactive) | > 100 µM (inactive) | 53.3 µM (inactive) | 56.1 µM (inactive) | 36.4 µM (inactive) | 81.3 µM (inactive) | 41.4 µM (inactive) | 29.8 µM (inactive) | > 100 µM (inactive) | 36.4 µM (inactive) | > 100 | 31.6 µM (inactive) | 75.2 µM (inactive) |  | 85.1 µM (inactive) | 76.9 µM (inactive) | 48.2 µM (inactive) | 52.7 µM (inactive) | 25.2 µM (inactive) | 
